{"source": "patent US8450357B2", "about": "“Compositions comprising an aryl pyrazole and/or a formamidine, methods and uses thereof” (Merial Limited, priority 2008, dated 2013)", "type_in_all_cases": "in vivo", "key": {"ticks": {"system": "ticks", "assay": "Efficacy of combination of fipronil with amitraz against ticks on dogs", "conditions": "10 mg/kg BW of actives, topical", "procedure": "A fipronil formulation (commercial product) was prepared and stored separately from amitraz. Amitraz was formulated with the same carrier. Both parts, fipronil and amitraz in solvent(s) were stored separately and applied simultaneously. Amounts applied were calculated to keep dose at 10% (w/v) each in final formulation and 10 mg/kg BW of actives in amount applied.\nIn brief, treatment was applied by parting the hair on the midline of the neck, between the base of the skull and the shoulder blades, and applying the formulation directly onto the skin."}, "[1]": {"system": "adult Rhipicephalus sanguineus ticks", "assay": "whole plant or invertebrate", "conditions": "Rhipicephalus sanguineus", "from_the_text": "Dosages were serially diluted using this same formulation."}, "[2]": {"system": "Ctenocephalides felis fleas", "assay": "Study C: flea efficacy of Compound 1 and fipronil alone and with amitraz in dogs", "procedure": "The effectiveness of Compound 1 alone, fipronil alone, Compound 1 in combination with amitraz, or fipronil in combination with amitraz, when administered once as topical solutions to dogs against induced infestations of Rhipicephalus sanguineus and Ctenocephalides felis were determined in a third clinical study. Thirty-six beagles (18 males and 18 females) were selected for the study. Six replicates of 6 animals each were formed. Treatment Group 1 dogs were treated with a placebo. Treatment Groups 2, 3, 4, 5 and 6 received their respective treatments as a topical spot-on application once on Day 0. Each formulation included diethyleneglycol monoethyl ether (transcutol) as carrier. The Treatment Groups were: Treatment Group 2: fipronil at 0.1 mL/kg body weight (10 mg/kg); Treatment Group 3: Compound 1 at 0.1 mL/kg (10 mg/kg) body weight; Treatment Group 4: Compound 1 at 0.2 mL/kg (20 mg/kg) body weight; Treatment Group 5: Compound 1 at 0.1 mL/kg (10 mg/kg) body weight plus amitraz at 0.04 mL/kg (8 mg/kg) body weight; Treatment Group 6: fipronil at 0.1 mL/kg (10 mg/kg) body weight plus amitraz at 0.04 mL/kg (8 mg/kg) body weight. Treatment was applied by parting the hair and applying the formulation(s) directly onto the skin on one spot at the midline of the neck, except for Groups 4, 5 and 6 which were applied in approximately equal volumes on two spots, one spot between the base of the skull and the shoulder blades and the other at the front of the shoulder blades.\nAll dogs were infested with approximately 50 Rhipicephalus sanguineus ticks on Days −1, 7, 14, 21, 28, 35, 42, 49 and 56. Dogs were also infested with approximately 100 Ctenocephalides felis fleas on Days −1, 8, 15, 22, 29, 36, 43, 50 and 57. Ectoparasites were removed and counted on Day 2, approximately 48 hours after treatment and on Days 9, 16, 23, 30, 37, 44, 51 and 58 approximately 24 hours after flea infestation and 48 hours after tick infestation. Tables 8 and 9 below show the % efficacy of formulations comprising fipronil at 0.1 ml/kg of body weight, Compound 1 at […], and fipronil and Compound 1 both at […] in combination with amitraz at 0.04 ml/kg of body weight compared to control group without active compounds. The percent reduction in flea counts of the treated groups with respect to the Control group over the study is shown in FIG. 14."}, "[3]": {"conditions": "6 h, read-out: 6 hour % Mortality Rep 1"}, "[4]": {"conditions": "6 h, read-out: 6 hour % Mortality Rep 2"}, "[5]": {"conditions": "6 h, read-out: 6 hour Avg. % Mortality"}, "[6]": {"conditions": "24 h, read-out: 24 hour % Mortality Rep 1"}, "[7]": {"conditions": "24 h, read-out: 24 hour % Mortality Rep 2"}, "[8]": {"conditions": "24 h, read-out: 24 hour Avg. % Mortality"}, "[9]": {"conditions": "48 h, read-out: 48 hour % Mortality Rep 1"}, "[10]": {"conditions": "48 h, read-out: 48 hour % Mortality Rep 2"}, "[11]": {"conditions": "48 h, read-out: 48 hour Avg. % Mortality"}}, "note": "Like-named read-outs stand apart in the source and are kept apart here.", "data": [{"smiles": "Cc1ccc(/N=C/N(C)/C=N/c2ccc(C)cc2C)c(C)c1", "note": "[Amitraz, amitraz]", "values": [{"measurement": "Efficacy against ticks", "setting": "ticks; 2 days after treatment", "result": 95.1, "unit": "%"}, {"measurement": "Efficacy against ticks", "setting": "ticks; 16 days after treatment", "result": 96.9, "unit": "%"}, {"measurement": "Efficacy against ticks", "setting": "ticks; 23 days after treatment", "result": 95.0, "unit": "%"}, {"measurement": "Efficacy against ticks", "setting": "ticks; 30 days after treatment", "result": 64.9, "unit": "%"}, {"measurement": "Efficacy against ticks", "setting": "ticks; 37 days after treatment", "result": 56.2, "unit": "%"}, {"measurement": "Efficacy against ticks", "setting": "ticks; 44 days after treatment", "result": 28.3, "unit": "%"}, {"measurement": "mortality at 6.25 ppm", "setting": "[1]; [3]", "result": 0, "unit": "%"}, {"measurement": "mortality at 12.5 ppm", "setting": "[1]; [3]", "result": 0, "unit": "%"}, {"measurement": "mortality at 25 ppm", "setting": "[1]; [3]", "result": 0, "unit": "%"}, {"measurement": "mortality at 6.25 ppm", "setting": "[1]; [4]", "result": 0, "unit": "%"}, {"measurement": "mortality at 12.5 ppm", "setting": "[1]; [4]", "result": 0, "unit": "%"}, {"measurement": "mortality at 25 ppm", "setting": "[1]; [4]", "result": 0, "unit": "%"}, {"measurement": "mortality at 6.25 ppm", "setting": "[1]; [5]", "result": 0, "unit": "%"}, {"measurement": "mortality at 12.5 ppm", "setting": "[1]; [5]", "result": 0, "unit": "%"}, {"measurement": "mortality at 25 ppm", "setting": "[1]; [5]", "result": 0, "unit": "%"}, {"measurement": "mortality at 6.25 ppm", "setting": "[1]; [6]", "result": 0, "unit": "%"}, {"measurement": "mortality at 12.5 ppm", "setting": "[1]; [6]", "result": 0, "unit": "%"}, {"measurement": "mortality at 25 ppm", "setting": "[1]; [6]", "result": 0, "unit": "%"}, {"measurement": "mortality at 6.25 ppm", "setting": "[1]; [7]", "result": 0, "unit": "%"}, {"measurement": "mortality at 12.5 ppm", "setting": "[1]; [7]", "result": 0, "unit": "%"}, {"measurement": "mortality at 25 ppm", "setting": "[1]; [7]", "result": 0, "unit": "%"}, {"measurement": "mortality at 6.25 ppm", "setting": "[1]; [8]", "result": 0, "unit": "%"}, {"measurement": "mortality at 12.5 ppm", "setting": "[1]; [8]", "result": 0, "unit": "%"}, {"measurement": "mortality at 25 ppm", "setting": "[1]; [8]", "result": 0, "unit": "%"}, {"measurement": "mortality at 6.25 ppm", "setting": "[1]; [9]", "result": 0, "unit": "%"}, {"measurement": "mortality at 12.5 ppm", "setting": "[1]; [9]", "result": 0, "unit": "%"}, {"measurement": "mortality at 25 ppm", "setting": "[1]; [9]", "result": 10, "unit": "%"}, {"measurement": "mortality at 6.25 ppm", "setting": "[1]; [10]", "result": 0, "unit": "%"}, {"measurement": "mortality at 12.5 ppm", "setting": "[1]; [10]", "result": 0, "unit": "%"}, {"measurement": "mortality at 25 ppm", "setting": "[1]; [10]", "result": 10, "unit": "%"}, {"measurement": "mortality at 6.25 ppm", "setting": "[1]; [11]", "result": 0, "unit": "%"}, {"measurement": "mortality at 12.5 ppm", "setting": "[1]; [11]", "result": 0, "unit": "%"}, {"measurement": "mortality at 25 ppm", "setting": "[1]; [11]", "result": 10, "unit": "%"}]}, {"smiles": "Cc1c([S+]([O-])C(F)(Cl)Cl)c(C#N)nn1-c1c(F)cc(C(F)(F)F)cc1Cl", "note": "(stereo not drawn) [Compound 1, 3-cyano-1-(2-chloro-6-fluoro-4-trifluoromethylphenyl)-4-dichlorofluoromethylsulfinyl-5-methyl-1H-pyrazole]", "values": [{"measurement": "% Efficacy against fleas", "setting": "[2]; Day 2, 10 mg/kg", "result": 100, "unit": "%"}, {"measurement": "% Efficacy against fleas", "setting": "[2]; Day 2, 20 mg/kg", "result": 100, "unit": "%"}, {"measurement": "% Efficacy against fleas", "setting": "[2]; Day 9, 10 mg/kg", "result": 100, "unit": "%"}, {"measurement": "% Efficacy against fleas", "setting": "[2]; Day 9, 20 mg/kg", "result": 100, "unit": "%"}, {"measurement": "% Efficacy against fleas", "setting": "[2]; Day 16, 10 mg/kg", "result": 100, "unit": "%"}, {"measurement": "% Efficacy against fleas", "setting": "[2]; Day 16, 20 mg/kg", "result": 100, "unit": "%"}, {"measurement": "% Efficacy against fleas", "setting": "[2]; Day 23, 10 mg/kg", "result": 100, "unit": "%"}, {"measurement": "% Efficacy against fleas", "setting": "[2]; Day 23, 20 mg/kg", "result": 100, "unit": "%"}, {"measurement": "% Efficacy against fleas", "setting": "[2]; Day 30, 10 mg/kg", "result": 99.8, "unit": "%"}, {"measurement": "% Efficacy against fleas", "setting": "[2]; Day 30, 20 mg/kg", "result": 100, "unit": "%"}, {"measurement": "% Efficacy against fleas", "setting": "[2]; Day 37, 10 mg/kg", "result": 99.4, "unit": "%"}, {"measurement": "% Efficacy against fleas", "setting": "[2]; Day 37, 20 mg/kg", "result": 100, "unit": "%"}, {"measurement": "% Efficacy against fleas", "setting": "[2]; Day 44, 10 mg/kg", "result": 98.6, "unit": "%"}, {"measurement": "% Efficacy against fleas", "setting": "[2]; Day 44, 20 mg/kg", "result": 100, "unit": "%"}, {"measurement": "% Efficacy against fleas", "setting": "[2]; Day 51, 10 mg/kg", "result": 98.5, "unit": "%"}, {"measurement": "% Efficacy against fleas", "setting": "[2]; Day 51, 20 mg/kg", "result": 99.8, "unit": "%"}, {"measurement": "% Efficacy against fleas", "setting": "[2]; Day 58, 10 mg/kg", "result": 94.6, "unit": "%"}, {"measurement": "% Efficacy against fleas", "setting": "[2]; Day 58, 20 mg/kg", "result": 100, "unit": "%"}]}]}
